Reference: publication PMC5218480 (PLoS ONE, 2017)

System: MV-4-11 cells
Test: Gene expression microarray analysis (Affymetrix PrimeView) and GSEA
Assay type: cell-based, human
Set-up: RFU PODN (11730768_x_at) / Fold change /veh PODN (11730768_x_at) / RFU LINC00158 (11744669_a_at) / Fold change /veh LINC00158 (11744669_a_at) / RFU DUSP10 (11751237_a_at) / Fold change /veh DUSP10 (11751237_a_at) / RFU ID3 (11757404_x_at) / Fold change /veh ID3 (11757404_x_at) / RFU PLEKHG5 (11737974_s_at) / Fold change /veh PLEKHG5 (11737974_s_at) / RFU LRRC4B (11730491_at) / Fold change /veh LRRC4B (11730491_at) / RFU GIMAP4 (11747438_a_at) / Fold change /veh GIMAP4 (11747438_a_at) / RFU KRT8 (11758183_x_at) / Fold change /veh KRT8 (11758183_x_at) / RFU CNN1 (11734310_a_at) / Fold change /veh CNN1 (11734310_a_at) / RFU VPS37D (11726825_at) / Fold change /veh VPS37D (11726825_at) / RFU C10orf10 (11716522_x_at) / Fold change /veh C10orf10 (11716522_x_at) / RFU KIR2DL2 /// KIR2DL4 /// KIR2DL5A /// KIR2DL5B /// KIR2DS1 /// KIR2DS2 /// KIR2DS3 /// KIR2DS4 /// KIR3DL3 /// KIR3DL3 /// KIR3DS1 (11738374_at) / Fold change /veh KIR2DL2 /// KIR2DL4 /// KIR2DL5A /// KIR2DL5B /// KIR2DS1 /// KIR2DS2 /// KIR2DS3 /// KIR2DS4 /// KIR3DL3 /// KIR3DL3 /// KIR3DS1 (11738374_at) / RFU C1QL1 (11718748_at) / Fold change /veh C1QL1 (11718748_at) / RFU TMPRSS4 (11747572_a_at) / Fold change /veh TMPRSS4 (11747572_a_at) / RFU HAMP (11756126_x_at) / Fold change /veh HAMP (11756126_x_at) / RFU RNFT2 (11725882_a_at) / Fold change /veh RNFT2 (11725882_a_at) / RFU NR4A2 (11747474_a_at) / Fold change /veh NR4A2 (11747474_a_at) / RFU ABCC12 (11746883_a_at) / Fold change /veh ABCC12 (11746883_a_at) / RFU TMEM136 (11760407_x_at) / Fold change /veh TMEM136 (11760407_x_at) / RFU CLDN22 /// WWC2 (11732394_at) / Fold change /veh CLDN22 /// WWC2 (11732394_at) / RFU HLA-DPB1 (11760878_x_at) / Fold change /veh HLA-DPB1 (11760878_x_at) / RFU SPINT1 (11716480_a_at) / Fold change /veh SPINT1 (11716480_a_at) / RFU GAP43 (11754022_s_at) / Fold change /veh GAP43 (11754022_s_at) / RFU A4GNT (11735810_at) / Fold change /veh A4GNT (11735810_at) / RFU PRB3 (11715151_x_at) / Fold change /veh PRB3 (11715151_x_at) / RFU TUBB4B (11761932_at) / Fold change /veh TUBB4B (11761932_at) / RFU CAPN14 (11732068_a_at) / Fold change /veh CAPN14 (11732068_a_at) / RFU TMCC2 (11721928_a_at) / Fold change /veh TMCC2 (11721928_a_at) / RFU IRGQ (11745062_a_at) / Fold change /veh IRGQ (11745062_a_at) / RFU FAM174B (11720279_a_at) / Fold change /veh FAM174B (11720279_a_at) / RFU TMPRSS4 (11748680_a_at) / Fold change /veh TMPRSS4 (11748680_a_at) / RFU FAM212B (11763350_a_at) / Fold change /veh FAM212B (11763350_a_at) / RFU PLEKHG5 (11743358_a_at) / Fold change /veh PLEKHG5 (11743358_a_at) / RFU ZSCAN30 (11745921_a_at) / Fold change /veh ZSCAN30 (11745921_a_at) / RFU CMKLR1 (11741424_a_at) / Fold change /veh CMKLR1 (11741424_a_at) / RFU LOC101060620 /// MAPK8IP1 (11723275_at) / Fold change /veh LOC101060620 /// MAPK8IP1 (11723275_at) / RFU SPTSSB (11747773_x_at) / Fold change /veh SPTSSB (11747773_x_at) / RFU PRSS12 (11739890_at) / Fold change /veh PRSS12 (11739890_at) / RFU BIN1 (11741810_x_at) / Fold change /veh BIN1 (11741810_x_at) / RFU WNT11 (11732464_a_at) / Fold change /veh WNT11 (11732464_a_at) / RFU C10orf10 (11716521_a_at) / Fold change /veh C10orf10 (11716521_a_at) / RFU C5orf56 (11738089_at) / Fold change /veh C5orf56 (11738089_at) / RFU CYB561 (11721691_x_at) / Fold change /veh CYB561 (11721691_x_at) / RFU ANKRD19P (11752326_a_at) / Fold change /veh ANKRD19P (11752326_a_at) / RFU OR2T12 /// OR2T33 /// OR2T8 (11738714_s_at) / Fold change /veh OR2T12 /// OR2T33 /// OR2T8 (11738714_s_at) / RFU VCAN (11748164_a_at) / Fold change /veh VCAN (11748164_a_at) / RFU JSRP1 (11732532_at) / Fold change /veh JSRP1 (11732532_at) / RFU KRTAP10-11 (11738290_x_at) / Fold change /veh KRTAP10-11 (11738290_x_at) / RFU MYO3A (11730013_a_at) / Fold change /veh MYO3A (11730013_a_at) / RFU EBF3 (11725865_a_at) / Fold change /veh EBF3 (11725865_a_at) / RFU CAMK2N1 (11719241_x_at) / Fold change /veh CAMK2N1 (11719241_x_at) / RFU C5orf56 (11738088_a_at) / Fold change /veh C5orf56 (11738088_a_at) / RFU OLFML3 (11715873_a_at) / Fold change /veh OLFML3 (11715873_a_at) / RFU LOC100653217 /// NTM (11731650_a_at) / Fold change /veh LOC100653217 /// NTM (11731650_a_at) / RFU MAPK11 (11762145_a_at) / Fold change /veh MAPK11 (11762145_a_at) / RFU FIZ1 (11724087_x_at) / Fold change /veh FIZ1 (11724087_x_at) / RFU OASL (11726364_x_at) / Fold change /veh OASL (11726364_x_at) / RFU SOX15 (11748057_x_at) / Fold change /veh SOX15 (11748057_x_at) / RFU CD79A (11719716_a_at) / Fold change /veh CD79A (11719716_a_at) / RFU HIST1H1D (11736915_at) / Fold change /veh HIST1H1D (11736915_at) / RFU CASKIN2 (11723855_a_at) / Fold change /veh CASKIN2 (11723855_a_at) / RFU LOC730098 (11760151_x_at) / Fold change /veh LOC730098 (11760151_x_at) / RFU OR4N2 (11742367_at) / Fold change /veh OR4N2 (11742367_at) / RFU PRRT2 (11749266_a_at) / Fold change /veh PRRT2 (11749266_a_at) / RFU SNX32 (11753110_a_at) / Fold change /veh SNX32 (11753110_a_at) / RFU CDHR5 (11726645_a_at) / Fold change /veh CDHR5 (11726645_a_at) / RFU RCAN1 (11760418_a_at) / Fold change /veh RCAN1 (11760418_a_at) / RFU FAM167A (11723789_a_at) / Fold change /veh FAM167A (11723789_a_at) / RFU FAM26E (11764081_at) / Fold change /veh FAM26E (11764081_at) / RFU ISYNA1 (11749810_s_at) / Fold change /veh ISYNA1 (11749810_s_at) / RFU ACY1 (11761880_at) / Fold change /veh ACY1 (11761880_at) / RFU 11764098_at / Fold change /veh 11764098_at / RFU SAMD14 (11745864_x_at) / Fold change /veh SAMD14 (11745864_x_at) / RFU NPB (11741838_a_at) / Fold change /veh NPB (11741838_a_at) / RFU TMPRSS6 (11731388_a_at) / Fold change /veh TMPRSS6 (11731388_a_at) / RFU KRTAP10-2 (11738614_at) / Fold change /veh KRTAP10-2 (11738614_at) / RFU ARHGAP8 /// PRR5-ARHGAP8 (11727945_x_at) / Fold change /veh ARHGAP8 /// PRR5-ARHGAP8 (11727945_x_at) / RFU KRTAP5-7 /// NADSYN1 (11734609_at) / Fold change /veh KRTAP5-7 /// NADSYN1 (11734609_at) / RFU RASL12 (11751679_a_at) / Fold change /veh RASL12 (11751679_a_at) / RFU CDKN2B (11736163_a_at) / Fold change /veh CDKN2B (11736163_a_at) / RFU PRF1 (11729649_at) / Fold change /veh PRF1 (11729649_at) / RFU, ZNF638 /// ZNF638-IT1 / Fold change vs veh, ZNF638 /// ZNF638-IT1 / RFU, PANK3 / Fold change vs veh, PANK3 / RFU, SH3YL1 / Fold change vs veh, SH3YL1 / RFU, ZEB2 / Fold change vs veh, ZEB2 / RFU, NRIP1 / Fold change vs veh, NRIP1 / RFU, PTTG1IP / Fold change vs veh, PTTG1IP / RFU, CAPN2 / Fold change vs veh, CAPN2 / RFU, MED14 / Fold change vs veh, MED14 / RFU, SNORA58 / Fold change vs veh, SNORA58 / RFU, C1orf63 / Fold change vs veh, C1orf63 / RFU, LRRFIP1 / Fold change vs veh, LRRFIP1 / RFU, NDUFAF7 / Fold change vs veh, NDUFAF7 / RFU, SLC12A2 / Fold change vs veh, SLC12A2 / RFU, IBTK / Fold change vs veh, IBTK / RFU, ESF1 / Fold change vs veh, ESF1 / Fold change vs veh, TMEM50B / RFU, TAOK1 / Fold change vs veh, TAOK1 / RFU, ACBD3 / Fold change vs veh, ACBD3 / RFU, TMA16 / Fold change vs veh, TMA16 / RFU, RWDD3 / Fold change vs veh, RWDD3 / RFU, BCAT1 / Fold change vs veh, BCAT1 / RFU, EDEM3 / Fold change vs veh, EDEM3 / RFU, TMEM33 / Fold change vs veh, TMEM33 / RFU, WDR75 / Fold change vs veh, WDR75 / RFU, AHCTF1 / Fold change vs veh, AHCTF1 / RFU, TFRC / Fold change vs veh, TFRC / RFU, ZDHHC17 / Fold change vs veh, ZDHHC17 / RFU, NOM1 / Fold change vs veh, NOM1 / RFU, ARL8B / Fold change vs veh, ARL8B / RFU, ZBTB11 / Fold change vs veh, ZBTB11 / RFU, TAMM41 / Fold change vs veh, TAMM41 / RFU, KIAA1704 /// LOC100996395 / Fold change vs veh, KIAA1704 /// LOC100996395 / RFU, ING1 / Fold change vs veh, ING1 / RFU, TRMT61B / Fold change vs veh, TRMT61B / RFU, FUBP3 / Fold change vs veh, FUBP3 / RFU, TP53 / Fold change vs veh, TP53 / RFU, TNKS2 / Fold change vs veh, TNKS2 / RFU, ZFP14 / Fold change vs veh, ZFP14 / RFU, ACTR2 / Fold change vs veh, ACTR2 / RFU, PPP3R1 / Fold change vs veh, PPP3R1 / RFU, PIK3R1 / Fold change vs veh, PIK3R1 / RFU, HNRNPA1 / Fold change vs veh, HNRNPA1 / RFU, RNF170 / Fold change vs veh, RNF170 / RFU, ZNF28 / Fold change vs veh, ZNF28 / RFU, RNGTT / Fold change vs veh, RNGTT / RFU, OGT / Fold change vs veh, OGT / RFU, BRD1 / Fold change vs veh, BRD1 / RFU, MARS / Fold change vs veh, MARS / RFU, ZNF655 / Fold change vs veh, ZNF655 / RFU, FAHD1 / Fold change vs veh, FAHD1 / RFU, BDP1 / Fold change vs veh, BDP1 / RFU, LRRCC1 / Fold change vs veh, LRRCC1 / RFU, ARID1A / Fold change vs veh, ARID1A / RFU, ZNF146 / Fold change vs veh, ZNF146 / RFU, ZNF330 / Fold change vs veh, ZNF330 / RFU, GPN3 / Fold change vs veh, GPN3 / RFU, C9orf123 / Fold change vs veh, C9orf123 / RFU, N4BP2L2 / Fold change vs veh, N4BP2L2 / RFU, ARFIP1 / Fold change vs veh, ARFIP1 / RFU, FAM179B / Fold change vs veh, FAM179B / RFU, BCL10 / Fold change vs veh, BCL10 / RFU, UHRF1BP1L / Fold change vs veh, UHRF1BP1L / RFU, BET1 / Fold change vs veh, BET1 / RFU, CNOT2 / Fold change vs veh, CNOT2 / RFU, ZNF268 / Fold change vs veh, ZNF268 / Fold change vs veh, ZNF507 / RFU, DGCR2 / Fold change vs veh, DGCR2 / RFU, WDSUB1 / Fold change vs veh, WDSUB1 / Fold change vs veh, HSP90B1 /// MIR3652 / RFU, ADSS / Fold change vs veh, ADSS / RFU, GK / Fold change vs veh, GK / RFU, ZNF148 / Fold change vs veh, ZNF148 / RFU, TAF9 / Fold change vs veh, TAF9 / RFU, SLC1A5 / Fold change vs veh, SLC1A5 / RFU, SLMO2 / Fold change vs veh, SLMO2 / RFU, ABCC4 / Fold change vs veh, ABCC4 / RFU, LOC101060439 /// RAP1B / Fold change vs veh, LOC101060439 /// RAP1B / RFU, RFX7 / Fold change vs veh, RFX7 / RFU, GTPBP10 / Fold change vs veh, GTPBP10 / RFU, CNEP1R1 / Fold change vs veh, CNEP1R1 / RFU, BIVM-ERCC5 /// ERCC5 / Fold change vs veh, BIVM-ERCC5 /// ERCC5 / RFU, ILF3 / Fold change vs veh, ILF3 / RFU 11762660_at / Fold change /veh 11762660_at / RFU VCAN (11757783_s_at) / Fold change /veh VCAN (11757783_s_at) / RFU DDX43 (11728927_at) / Fold change /veh DDX43 (11728927_at) / RFU KRT8 (11758188_x_at) / Fold change /veh KRT8 (11758188_x_at) / RFU NKD1 (11759106_at) / Fold change /veh NKD1 (11759106_at) / RFU SRD5A1 (11742802_a_at) / Fold change /veh SRD5A1 (11742802_a_at) / RFU TPSAB1 /// TPSB2 (11721975_s_at) / Fold change /veh TPSAB1 /// TPSB2 (11721975_s_at) / RFU GSTM3 (11746129_a_at) / Fold change /veh GSTM3 (11746129_a_at) / RFU IL23R (11737362_x_at) / Fold change /veh IL23R (11737362_x_at) / RFU TMEM51 (11727254_a_at) / Fold change /veh TMEM51 (11727254_a_at) / RFU PIWIL2 (11732686_x_at) / Fold change /veh PIWIL2 (11732686_x_at) / RFU ORM1 (11744905_x_at) / Fold change /veh ORM1 (11744905_x_at) / RFU CCDC152 (11743942_at) / Fold change /veh CCDC152 (11743942_at) / RFU ECM1 (11717891_a_at) / Fold change /veh ECM1 (11717891_a_at) / RFU IL23R (11748794_a_at) / Fold change /veh IL23R (11748794_a_at) / RFU TNFAIP8L3 (11732012_x_at) / Fold change /veh TNFAIP8L3 (11732012_x_at) / RFU MBOAT4 (11741988_at) / Fold change /veh MBOAT4 (11741988_at) / RFU 11764193_at / Fold change /veh 11764193_at / RFU TMEM53 (11763286_at) / Fold change /veh TMEM53 (11763286_at) / RFU MAGEB2 (11727129_at) / Fold change /veh MAGEB2 (11727129_at) / RFU TMEM200A (11744735_a_at) / Fold change /veh TMEM200A (11744735_a_at) / RFU CCDC152 (11751479_a_at) / Fold change /veh CCDC152 (11751479_a_at) / RFU FAM211A (11726209_a_at) / Fold change /veh FAM211A (11726209_a_at) / RFU RGS16 (11746705_a_at) / Fold change /veh RGS16 (11746705_a_at) / RFU VCAN (11755009_s_at) / Fold change /veh VCAN (11755009_s_at) / RFU RHOB (11743442_s_at) / Fold change /veh RHOB (11743442_s_at) / RFU RGS16 (11720943_a_at) / Fold change /veh RGS16 (11720943_a_at) / RFU RGS16 (11720944_at) / Fold change /veh RGS16 (11720944_at) / RFU, VPS4B / Fold change vs veh, VPS4B / RFU, CREB1 / Fold change vs veh, CREB1 / RFU, DNAJC13 / Fold change vs veh, DNAJC13 / RFU, GNAQ / Fold change vs veh, GNAQ / RFU, CDK5R1 / Fold change vs veh, CDK5R1 / RFU, ZRANB3 / Fold change vs veh, ZRANB3 / RFU, CUL4A / Fold change vs veh, CUL4A / RFU, CCNY / Fold change vs veh, CCNY / RFU, UFL1 / Fold change vs veh, UFL1 / RFU, COG3 / Fold change vs veh, COG3 / RFU, DIAPH2 / Fold change vs veh, DIAPH2 / RFU, SKA2 / Fold change vs veh, SKA2 / RFU, AFF3 / Fold change vs veh, AFF3 / RFU, LMF1 / Fold change vs veh, LMF1 / RFU, IPO11 / Fold change vs veh, IPO11 / RFU, DFFB / Fold change vs veh, DFFB / RFU, FOXP1 / Fold change vs veh, FOXP1 / RFU, CARD8 / Fold change vs veh, CARD8 / RFU, STRN3 / Fold change vs veh, STRN3 / RFU, ADK / Fold change vs veh, ADK / RFU, RASSF2 / Fold change vs veh, RASSF2 / RFU, WIPF1 / Fold change vs veh, WIPF1 / RFU, LARP1B / Fold change vs veh, LARP1B / RFU, RASA1 / Fold change vs veh, RASA1 / RFU, RB1 / Fold change vs veh, RB1 / RFU, PPFIA1 / Fold change vs veh, PPFIA1 / RFU, MAT2A / Fold change vs veh, MAT2A / RFU, CCT5 / Fold change vs veh, CCT5 / RFU, WDR92 / Fold change vs veh, WDR92 / RFU, CUX1 / Fold change vs veh, CUX1 / RFU, TTC7A / Fold change vs veh, TTC7A / RFU, TMEM135 / Fold change vs veh, TMEM135 / RFU, DEPTOR / Fold change vs veh, DEPTOR / RFU, CPM / Fold change vs veh, CPM / RFU, DNAJB6 / Fold change vs veh, DNAJB6 / RFU, CACNA2D3 / Fold change vs veh, CACNA2D3 / RFU, DTX4 / Fold change vs veh, DTX4 / RFU, TFCP2 / Fold change vs veh, TFCP2 / RFU, GMCL1 /// GMCL1P1 / Fold change vs veh, GMCL1 /// GMCL1P1 / RFU, AEBP2 / Fold change vs veh, AEBP2 / RFU, SNHG1 /// SNORD22 /// SNORD25 /// SNORD26 /// SNORD27 /// SNORD28 /// SNORD29 /// SNORD31 / Fold change vs veh, SNHG1 /// SNORD22 /// SNORD25 /// SNORD26 /// SNORD27 /// SNORD28 /// SNORD29 /// SNORD31 / Fold change (Aza/veh), C12orf56 (ProbeSet 11735607_a_at) / Fold change (ACY-1035/veh), C12orf56 (ProbeSet 11735607_a_at) / Fold change (Aza/veh), FGFR1OP (ProbeSet 11751329_s_at) / Fold change (ACY-1035/veh), FGFR1OP (ProbeSet 11751329_s_at) / Fold change (Aza/veh), VPS36 (ProbeSet 11739960_a_at) / Fold change (ACY-1035/veh), VPS36 (ProbeSet 11739960_a_at) / RFU SYPL1 (11715823_x_at) / Fold change /veh SYPL1 (11715823_x_at) / RFU IGFBP7 (11715501_s_at) / Fold change /veh IGFBP7 (11715501_s_at) / RFU REEP3 (11722064_at) / Fold change /veh REEP3 (11722064_at) / RFU IGLL1 (11728026_x_at) / Fold change /veh IGLL1 (11728026_x_at): dose or concentration left out as unconfirmed
Conditions: MV-4-11 cells, 48 hours

Nc1ccc(-c2cccs2)cc1NC(=O)c1ccc2c(c1)cc(C1CC1)n2CCN1CCOCC1 [ACY-1035] was tested, and the “RFU HAMP (11756126_x_at)” value was 352.00 RFU.
